Measurements taken from patent US11166460B2, “α-amino acrylate microbicide, and preparation method therefor and uses thereof” (priority 2017, dated 2021).
Converted amounts (≈) assume the structure as drawn. Read-outs that look alike come from different tables or passages of the source.

What was measured:
[1] = test system: tobacco mosaic virus (TMV); experiment: Anti-TMV curative activity (treatment mode), live friction inoculation on tobacco seedlings; type: in vivo; settings: Tobacco mosaic virus, read-out: Anti-TMV activity, Curative effect (inhibition), 100 μg/mL, tobacco seedlings, checked on seventh day
[2] = test system: tobacco mosaic virus (TMV); experiment: Anti-TMV inactivation activity (inactivation mode), compound mixed with TMV before inoculation of tobacco leaves; type: in vivo; settings: Tobacco mosaic virus, read-out: Anti-TMV activity, Inactivation effect (inhibition)
[3] = test system: tobacco mosaic virus (TMV); experiment: Anti-TMV protective activity (protection mode), live friction inoculation on tobacco seedlings; type: in vivo; settings: Tobacco mosaic virus, read-out: Anti-TMV activity, Protection effect (inhibition)
[4] = test system: tobacco mosaic virus (TMV); experiment: Anti-TMV inducing activity (induction mode), tobacco seedlings; type: in vivo; settings: Tobacco mosaic virus, read-out: Anti-TMV activity, Induction effect (inhibition), 100 μg/mL, tobacco seedlings
Alternaria solani = experiment: Fungicidal activity, fungi growth rate method, AS; type: cell-based; settings: Alternaria solani, 50 μg/mL
Botrytis cinerea = experiment: Fungicidal activity, fungi growth rate method, BC; type: cell-based; settings: Botrytis cinerea, 50 μg/mL
Cercospora arachidicola = experiment: Fungicidal activity, fungi growth rate method, CA; type: cell-based; settings: Mycosphaerella arachidis, 50 μg/mL
wheat Gibberella zeae = experiment: microbe, parasite or virus in culture; type: cell-based; settings: Fusarium graminearum
[5] = test system: Phytophthora infestans (Mont) de Bary; experiment: microbe, parasite or virus in culture; type: cell-based; settings: Phytophthora infestans
Physalospora piricola = experiment: Fungicidal activity, fungi growth rate method, PP; type: cell-based; settings: 50 μg/mL
Pellicularia sasakii = experiment: Fungicidal activity, fungi growth rate method, PS; type: cell-based; settings: 50 μg/mL
Rhizoctonia cerealis = experiment: Fungicidal activity, fungi growth rate method, RC; type: cell-based; settings: Ceratobasidium cereale, 50 μg/mL
Sclerotinia sclerotiorum = experiment: microbe, parasite or virus in culture; type: cell-based; settings: Sclerotinia sclerotiorum; for inhibition at 50 µg/mL: 50 μg/mL
[6] = read-out: Fungicidal activity, inhibition, AS
[7] = read-out: Fungicidal activity, inhibition, BC
[8] = read-out: Fungicidal activity, inhibition, CA
[9] = read-out: Fungicidal activity, inhibition, GZ
[10] = read-out: Fungicidal activity, inhibition, PI
[11] = read-out: Fungicidal activity, inhibition, PP
[12] = read-out: Fungicidal activity, inhibition, PS
[13] = read-out: Fungicidal activity, inhibition, RC
[14] = read-out: Fungicidal activity, inhibition, SS
[15] = read-out: Fungicidal activity (inhibition) against SS: Sclerotinia sclerotiorum

| SMILES | inhibition at 100 µg/mL [1] [%] | inhibition at 100 µg/mL [2] [%] | inhibition at 100 µg/mL [3] [%] | inhibition at 100 µg/mL [4] [%] | inhibition at 50 µg/mL (Alternaria solani; [6]) [%] | inhibition at 50 µg/mL (Botrytis cinerea; [7]) [%] | inhibition at 50 µg/mL (Cercospora arachidicola; [8]) [%] | inhibition at 50 µg/mL (wheat Gibberella zeae; [9]) [%] | inhibition at 50 µg/mL [5, 10] [%] | inhibition at 50 µg/mL (Physalospora piricola; [11]) [%] | inhibition at 50 µg/mL (Pellicularia sasakii; [12]) [%] | inhibition at 50 µg/mL (Rhizoctonia cerealis; [13]) [%] | inhibition at 50 µg/mL (Sclerotinia sclerotiorum; [14]) [%] | melting point [°C] | inhibition at 50 µg/mL (Sclerotinia sclerotiorum; [15]) [%] | also measured |
| --- | --- | --- | --- | --- | --- | --- | --- | --- | --- | --- | --- | --- | --- | --- | --- | --- |
| O=C(NCc1cccc(Br)c1)/C(=C/c1ccccc1)NC(=O)c1ccccc1 [Compound 51, N-[(1Z)-2-phenyl-1-[[(3-bromophenylmethyl)amino]carbonyl]ethenyl]benzamide] | 12 | 69 | 11 | 14 | 25 | 24 | 15 | 43 | 21 | 18 | 14 | 28 | 50 | 180 to 182 |  |  |
| O=C(NCc1ccccc1Br)/C(=C/c1ccccc1)NC(=O)c1ccccc1 [Compound 52, N-[(1Z)-2-phenyl-1-[[(2-bromophenylmethyl)amino]carbonyl]ethenyl]benzamide] | 12 | 31 | 20 | 47 | 11 | 18 | 11 | 29 | 16 | 6 | 14 | 18 | 38 | 178 to 180 |  |  |
| O=C(NCc1ccccc1)/C(=C/c1ccccc1)NC(=O)c1ccccc1 [Compound 53, N-[(1Z)-2-phenyl-1-[[(phenylmethyl)amino]carbonyl]ethenyl]benzamide] | 55 | 58 | 33 | 0 | 16 | 16 | 18 | 23 | 5 | 13 | 8 | 5 | 75 | 169 to 171 | 75 | inhibition at 50 µg/mL (Alternaria solani; read-out: Fungicidal activity (inhibition) against AS: Alternaria solani): < 30%; inhibition at 50 µg/mL (Botrytis cinerea; read-out: Fungicidal activity (inhibition) against BC: Botrytis cinerea): ≤ 20%; inhibition at 50 µg/mL (Cercospora arachidicola; read-out: Fungicidal activity (inhibition) against CA: Cercospora arachidicola): < 25%; inhibition at 50 µg/mL (wheat Gibberella zeae; read-out: Fungicidal activity (inhibition) against GZ: wheat Gibberella zeae): < 45%; inhibition at 50 µg/mL ([5]; read-out: Fungicidal activity (inhibition) against PI: Phytophthora infestans (Mont) de Bary): < 25%; inhibition at 50 µg/mL (Physalospora piricola; read-out: Fungicidal activity (inhibition) against PP: Physalospora piricola): < 20%; inhibition at 50 µg/mL (Pellicularia sasakii; read-out: Fungicidal activity (inhibition) against PS: Pellicularia sasakii): < 30%; inhibition at 50 µg/mL (Rhizoctonia cerealis; read-out: Fungicidal activity (inhibition) against RC: Rhizoctonia cerealis): < 20% |
| COc1ccc(CNC(=O)/C(=C/c2ccccc2)NC(=O)c2ccccc2)cc1 [Compound 54, N-[(1Z)-2-phenyl-1-[[(4-methoxyphenylmethyl)amino]carbonyl]ethenyl]benzamide] | 49 | 28 | 0 | 0 | 16 | 12 | 16 | 42 | 2 | 13 | 17 | 17 | 75 | 138 to 140 | 60 to 80 |  |
| O=C(NCc1ccc(F)cc1)/C(=C/c1ccccc1)NC(=O)c1ccccc1 [Compound 55, N-[(1Z)-2-phenyl-1-[[(4-fluorophenylmethyl)amino]carbonyl]ethenyl]benzamide] | 45 | 59 | 0 | 4 | 28 | 12 | 10 | 34 | 19 | 21 | 12 | 12 | 75 | 199 to 201 | 60 to 80 |  |
| O=C(NCc1ccc(Cl)cc1)/C(=C/c1ccccc1)NC(=O)c1ccccc1 [Compound 56, N-[(1Z)-2-phenyl-1-[[(4-chlorophenylmethyl)amino]carbonyl]ethenyl]benzamide] | 30 | 58 | 0 | 4 | 24 | 22 | 14 | 19 | 5 | 4 | 12 | 17 | 100 | 202 to 204 | 100 | EC90 (Sclerotinia sclerotiorum; read-out: EC90 against S. sclerotiorum in vitro): 1260 µg/mL (≈ 3.21 mM) |
| O=C(NCc1ccc(C(F)(F)F)cc1)/C(=C/c1ccccc1)NC(=O)c1ccccc1 [Compound 57, N-[(1Z)-2-phenyl-1-[[(4-trifluoromethylphenylmethyl)amino]carbonyl]ethenyl]benzamide] | 52 | 61 | 4 | 0 | 16 | 10 | 4 | 31 | 0 | 0 | 19 | 10 | 50 | 167 to 168 |  |  |
| O=C(NCc1cccs1)/C(=C/c1ccccc1)NC(=O)c1ccccc1 [Compound 58, N-[(1Z)-2-phenyl-1-[[(2-thienylmethyl)amino]carbonyl]ethenyl]benzamide] | 17 | 0 | 0 | 2 | 21 | 18 | 6 | 29 | 21 | 9 | 14 | 18 | 47 | 210 to 212 |  |  |
